Source: PubChem BioAssay AID1918940 (Molecular Pharmacology Branch, DTP, NCI, 2023)

System: NCI-H211 complex spheroid viability
Test: Anticancer human tumor NCI-H211 cell line growth inhibition [LSD1];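 note: luminescent viability read after seven days of drug exposure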;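 for viability, T/C: 100% = DMSO vehicle control viability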
Settings: for IC50: curve of first compound; for viability, T/C: stronger effect = lower value
Outline: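 Complex spheroids of tumor cells with HUVEC and human MSCs, exposed to iadademstat combined with other agents. Each agent tested in half-log steps from near clinical Cmax (else 10 microM top), DMSO ≤0.25%.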

[1] = second compound 0.1 µM, first compound 0.0316 µM
[2] = second compound 0.1 µM, first compound 0.1 µM
[3] = second compound 0.1 µM, first compound 0.316 µM
[4] = second compound 0.1 µM, first compound 1 µM
[5] = second compound 0.1 µM, first compound 3.16 µM
[6] = second compound 0.1 µM, first compound 10 µM
[7] = second compound 0.316 µM, first compound 0.0316 µM
[8] = second compound 0.316 µM, first compound 0.1 µM
[9] = second compound 0.316 µM, first compound 0.316 µM
[10] = second compound 0.316 µM, first compound 1 µM
[11] = second compound 0.316 µM, first compound 3.16 µM
[12] = second compound 0.316 µM, first compound 10 µM
[13] = second compound 1 µM, first compound 0.0316 µM
[14] = second compound 1 µM, first compound 0.1 µM
[15] = second compound 1 µM, first compound 0.316 µM
[16] = second compound 1 µM, first compound 1 µM
[17] = second compound 1 µM, first compound 3.16 µM
[18] = second compound 1 µM, first compound 10 µM
[19] = second compound 3.16 µM, first compound 0.0316 µM
[20] = second compound 3.16 µM, first compound 0.1 µM
[21] = second compound 3.16 µM, first compound 0.316 µM
[22] = second compound 3.16 µM, first compound 1 µM
[23] = second compound 3.16 µM, first compound 3.16 µM
[24] = second compound 3.16 µM, first compound 10 µM
[25] = second compound 10 µM, first compound 0.0316 µM
[26] = second compound 10 µM, first compound 0.1 µM
[27] = second compound 10 µM, first compound 0.316 µM
[28] = second compound 10 µM, first compound 1 µM
[29] = second compound 10 µM, first compound 3.16 µM
[30] = second compound 10 µM, first compound 10 µM

Q: `CC1(C)CCC(CN2CCN(c3ccc(C(=O)NS(=O)(=O)c4ccc(NCC5CCOCC5)c([N+](=O)[O-])c4)c(Oc4cnc5[nH]ccc5c4)c3)CC2)=C(c2ccc(Cl)cc2)C1` + NC1CCC(NC2CC2c2ccccc2)CC1 was tested. Which IC50 (second compound 0.1 µM) did it give?
A: 5790 nM

Q: What about the IC50 (second compound 0.316 µM) of the same compound?
A: 5770 nM

Q: What about the IC50 (second compound 1 µM) of the same compound?
A: > 10000 nM

Q: And the IC50 (second compound 3.16 µM)?
A: < 31.6 nM

Q: What about the IC50 (second compound 10 µM) of the same compound?
A: < 31.6 nM

Q: And the viability, T/C [1]?
A: 55.3%

Q: And the viability, T/C [2]?
A: 61.6%

Q: What about the viability, T/C [3] of the same compound?
A: 73.5%

Q: And the viability, T/C [4]?
A: 102%

Q: What about the viability, T/C [5] of the same compound?
A: 86.2%

Q: What about the viability, T/C [6] of the same compound?
A: 26.8%

Q: What about the viability, T/C [7] of the same compound?
A: 64.8%

Q: And the viability, T/C [8]?
A: 60.5%

Q: What about the viability, T/C [9] of the same compound?
A: 71.2%

Q: What about the viability, T/C [10] of the same compound?
A: 84.1%

Q: And the viability, T/C [11]?
A: 101%

Q: What about the viability, T/C [12] of the same compound?
A: 26%

Q: And the viability, T/C [13]?
A: 48.6%

Q: What about the viability, T/C [14] of the same compound?
A: 59%

Q: What about the viability, T/C [15] of the same compound?
A: 57.6%

Q: What about the viability, T/C [16] of the same compound?
A: 81.3%

Q: What about the viability, T/C [17] of the same compound?
A: 93.5%

Q: And the viability, T/C [18]?
A: 24.7%

Q: What about the viability, T/C [19] of the same compound?
A: 41.9%

Q: What about the viability, T/C [20] of the same compound?
A: 44.4%

Q: And the viability, T/C [21]?
A: 57.9%

Q: What about the viability, T/C [22] of the same compound?
A: 75.1%

Q: What about the viability, T/C [23] of the same compound?
A: 88.4%

Q: What about the viability, T/C [24] of the same compound?
A: 21.1%

Q: What about the viability, T/C [25] of the same compound?
A: 25.1%

Q: What about the viability, T/C [26] of the same compound?
A: 24.9%

Q: What about the viability, T/C [27] of the same compound?
A: 30%

Q: What about the viability, T/C [28] of the same compound?
A: 33.8%

Q: What about the viability, T/C [29] of the same compound?
A: 52.6%

Q: What about the viability, T/C [30] of the same compound?
A: 19.8%

Q: What does the source list for `CC1COCCN1c1cc(C2(S(C)(=N)=O)CC2)nc(-c2ccnc3[nH]ccc23)n1` (stereo not given) + NC1CCC(NC2CC2c2ccccc2)CC1?
A: IC50 (second compound 0.1 µM): 331 nM; IC50 (second compound 0.316 µM): 184 nM; IC50 (second compound 1 µM): 297 nM; IC50 (second compound 3.16 µM): 188 nM; IC50 (second compound 10 µM): < 31.6 nM; viability, T/C [1]: 67.7%; viability, T/C [2]: 64.1%; viability, T/C [3]: 51.6%; viability, T/C [4]: 16.1%; viability, T/C [5]: 3.34%; viability, T/C [6]: 2.31%; viability, T/C [7]: 79.6%; viability, T/C [8]: 63%; viability, T/C [9]: 38.7%; viability, T/C [10]: 13.6%; viability, T/C [11]: 3.19%; viability, T/C [12]: 2.33%; viability, T/C [13]: 66.4%; viability, T/C [14]: 67.5%; viability, T/C [15]: 48.4%; viability, T/C [16]: 16.4%; viability, T/C [17]: 3.53%; viability, T/C [18]: 2.09%; viability, T/C [19]: 66.5%; viability, T/C [20]: 55.5%; viability, T/C [21]: 44.5%; viability, T/C [22]: 17.2%; viability, T/C [23]: 2.59%; viability, T/C [24]: 1.55%; viability, T/C [25]: 40.9%; viability, T/C [26]: 39%; viability, T/C [27]: 25.4%; viability, T/C [28]: 9.13%; viability, T/C [29]: 1.75%; viability, T/C [30]: 1.04%
